These results are taken from patent US10759816B2, “Heterocyclic compounds as RSV inhibitors” (Enanta Pharmaceuticals, Inc., priority 2016, dated 2020).

A value given as a limit tells only on which side of the number the result lay.

The assay concerns genotype A, "Long" strain RSV. Kind of assay: RSV-A in vitro cytoprotection assay in HEp-2 cells (ATPlite readout of cell viability). The assay is classed as cell-based, Human respiratory syncytial virus. Conditions: human respiratory syncytial virus, HEp-2, HEp-2 cells, genotype A “Long” strain RSV, cytoprotection; read-out: Human RSV-A (“Long” strain) EC50. The method in brief:
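HEp-2 cells (8,000/well) given 2-fold compound dilutions in duplicate, then infected with RSV-A Long strain stock; viability read by ATPlite luminescence after 4 days. EC50 derived from cytoprotection; cytotoxicity measured on parallel uninfected plate.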
(In general: Cellular ATP, detected with luciferase, serves as a proxy for viable cell number.)
`CCS(=O)(=O)CCN(C)c1cccc(C(=O)N2CCc3cc(C(=O)Nc4c(C)cccc4F)sc3-c3ccccc32)n1` [Example 325]: the EC50 (usually the concentration needed to bring the measured effect to its halfway point) is less than 400 nM.
The same measure for `Cc1cccc(F)c1NC(=O)c1cc2c(s1)-c1ccccc1N(C(=O)c1cccc(N(CCO)C3CC3)n1)CC2` [Example 326]: 400 to 800 nM; for `Cc1cccc(F)c1NC(=O)c1cc2c(s1)-c1ccccc1N(C(=O)c1cccc(N(CCO)C3CCC3)n1)CC2` [Example 327]: less than 400 nM; for `COCCN(c1cccc(C(=O)N2CCc3cc(C(=O)Nc4c(C)cccc4F)sc3-c3ccccc32)n1)C1CCC1` [Example 328]: less than 400 nM.
`Cc1cccc(F)c1NC(=O)c1cc2c(s1)-c1ccccc1N(C(=O)c1cccc(NCCO)n1)CC2` [Example 329]: the EC50 is greater than 800 nM.
The same measure for `CCOCCNc1cccc(C(=O)N2CCc3cc(C(=O)Nc4c(C)cccc4F)sc3-c3ccccc32)n1` [Example 330]: less than 400 nM.
On to `Cc1cccc(F)c1NC(=O)c1cc2c(s1)-c1ccccc1N(C(=O)c1cccc(NCCOC(C)C)n1)CC2` [Example 331], for which the EC50 is less than 400 nM.
To `Cc1cccc(F)c1NC(=O)c1cc2c(s1)-c1ccccc1N(C(=O)c1cccc(N3Cc4ccccc4OC(C)(C)C3)n1)CC2` [Example 332] belongs less than 400 nM; to `Cc1cccc(F)c1NC(=O)c1cc2c(s1)-c1ccccc1N(C(=O)c1cccc(N(C)CCS(C)(=O)=O)n1)CC2` [Example 333], less than 400 nM; to `COCCCN(C)c1cccc(C(=O)N2CCc3cc(C(=O)Nc4c(C)cccc4F)sc3-c3ccccc32)n1` [Example 334], greater than 800 nM.
`Cc1cccc(F)c1NC(=O)c1cc2c(s1)-c1ccccc1N(C(=O)c1cccc(NCc3ccco3)n1)CC2` [Example 335]: the EC50 is less than 400 nM.
The same measure for `Cc1cccc(F)c1NC(=O)c1cc2c(s1)-c1ccccc1N(C(=O)c1cccc(NCC3OCc4ccccc43)n1)CC2` (centres unmarked) [Example 336]: less than 400 nM; for `Cc1cccc(F)c1NC(=O)c1cc2c(s1)-c1ccccc1N(C(=O)c1cccc(N(C)Cc3ccccn3)n1)CC2` [Example 337]: less than 400 nM.
For `Cc1cccc(F)c1NC(=O)c1cc2c(s1)-c1ccccc1N(C(=O)c1cccc(N(C)Cc3cccnc3)n1)CC2` [Example 338], the EC50 is less than 400 nM.
To `Cc1cccc(F)c1NC(=O)c1cc2c(s1)-c1ccccc1N(C(=O)c1cccc(N(C)Cc3ccncc3)n1)CC2` [Example 339] belongs less than 400 nM; to `Cc1cccc(F)c1NC(=O)c1cc2c(s1)-c1ccccc1N(C(=O)c1cccc(N[C@@H](C)c3ccccn3)n1)CC2` [Example 340], greater than 800 nM; to `COc1ccccc1CN(C)c1cccc(C(=O)N2CCc3cc(C(=O)Nc4c(C)cccc4F)sc3-c3ccccc32)n1` [Example 341], less than 400 nM.
Consider `COc1ccccc1CN(c1cccc(C(=O)N2CCc3cc(C(=O)Nc4c(C)cccc4F)sc3-c3ccccc32)n1)C1CC1` [Example 342], for which the EC50 lay within 400 to 800 nM.
To `COc1cccc(CN(C)c2cccc(C(=O)N3CCc4cc(C(=O)Nc5c(C)cccc5F)sc4-c4ccccc43)n2)c1` [Example 343] belongs less than 400 nM; to `COc1ccc(CN(C)c2cccc(C(=O)N3CCc4cc(C(=O)Nc5c(C)cccc5F)sc4-c4ccccc43)n2)cc1` [Example 344], less than 400 nM; to `Cc1cccc(F)c1NC(=O)c1cc2c(s1)-c1ccccc1N(C(=O)c1cccc(NCc3cccc4ccccc34)n1)CC2` [Example 345], greater than 800 nM.
To `Cc1cccc(F)c1NC(=O)c1cc2c(s1)-c1ccccc1N(C(=O)c1cccc(N(C)Cc3cccc(-c4ccncc4)c3)n1)CC2` [Example 346] belongs 400 to 800 nM; to `COc1ccccc1[C@H](C)Nc1cccc(C(=O)N2CCc3cc(C(=O)Nc4c(C)cccc4F)sc3-c3ccccc32)n1` [Example 347], greater than 800 nM.
Consider `CCN(CCOC)c1cccc(C(=O)N2CCc3cc(C(=O)Nc4c(C)cccc4F)sc3-c3ccccc32)n1` [Example 348], for which the EC50 is less than 400 nM.
To `Cc1cc(CNc2cccc(C(=O)N3CCc4cc(C(=O)Nc5c(C)cccc5F)sc4-c4ccccc43)n2)on1` [Example 349] belongs less than 400 nM; to `Cc1cccc(F)c1NC(=O)c1cc2c(s1)-c1ccccc1N(C(=O)c1cccc(NCc3ncco3)n1)CC2` [Example 350], less than 400 nM; to `Cc1cccc(F)c1NC(=O)c1cc2c(s1)-c1ccccc1N(C(=O)c1cccc(N(C)Cc3cccc(-c4cccnc4)c3)n1)CC2` [Example 351], greater than 800 nM.
With `Cc1cccc(F)c1NC(=O)c1cc2c(s1)-c1ccccc1N(C(=O)c1cccc(N(C)Cc3cccc(-c4ccccc4)c3)n1)CC2` [Example 352], the EC50 is 400 to 800 nM.
The same measure for `Cc1cccc(F)c1NC(=O)c1cc2c(s1)-c1ccccc1N(C(=O)c1cccc(N(C)Cc3cccc4ccccc34)n1)CC2` [Example 353]: greater than 800 nM.
With `Cc1cccc(F)c1NC(=O)c1cc2c(s1)-c1ccccc1N(C(=O)c1cccc(N(C)Cc3ccc4ccccc4c3)n1)CC2` [Example 354], the EC50 was greater than 800 nM.
Consider `Cc1cccc(F)c1NC(=O)c1cc2c(s1)-c1ccccc1N(C(=O)c1cccc(N(C)Cc3ccccc3-c3ccccc3)n1)CC2` [Example 355], for which the EC50 was greater than 800 nM.
With `COc1ccc2cc(CN(C)c3cccc(C(=O)N4CCc5cc(C(=O)Nc6c(C)cccc6F)sc5-c5ccccc54)n3)ccc2c1` [Example 356], the EC50 was greater than 800 nM.
The same measure for `Cc1cccc(F)c1NC(=O)c1cc2c(s1)-c1ccccc1N(C(=O)c1cccc(NCc3cccc(C(F)(F)F)n3)n1)CC2` [Example 357]: greater than 800 nM.
To `Cc1cccc(F)c1NC(=O)c1cc2c(s1)-c1ccccc1N(C(=O)c1cccc(NC(C)(C)c3ccccn3)n1)CC2` [Example 358] belongs less than 400 nM; to `COC[C@H]1CCCN1c1cccc(C(=O)N2CCc3cc(C(=O)Nc4c(C)cccc4F)sc3-c3cc(F)ccc32)n1` [Example 359], less than 400 nM; to `Cc1cccc(F)c1NC(=O)c1cc2c(s1)-c1ccccc1N(C(=O)c1cccc(N(C)Cc3ccc4ncccc4c3)n1)CC2` [Example 360], less than 400 nM.
`Cc1cccc(F)c1NC(=O)c1cc2c(s1)-c1ccccc1N(C(=O)c1cccc(NCC3(C)CCCO3)n1)CC2` (centres unmarked) [Example 361]: the EC50 is greater than 800 nM.
To `Cc1cccc(F)c1NC(=O)c1cc2c(s1)-c1ccccc1N(C(=O)c1cccc(N(C)C3CCOCC3)n1)CC2` [Example 362] belongs less than 400 nM; to `Cc1cccc(F)c1NC(=O)c1cc2c(s1)-c1ccccc1N(C(=O)c1cccc(N3CCOc4ccccc4C3)n1)CC2` [Example 363], less than 400 nM; to `Cc1cccc(F)c1NC(=O)c1cc2c(s1)-c1ccccc1N(C(=O)c1cccc(N3CCOc4ccccc4C3C)n1)CC2` (centres unmarked) [Example 364], greater than 800 nM.
With `Cc1cccc(F)c1NC(=O)c1cc2c(s1)-c1ccccc1N(C(=O)c1cccc(N3CCOc4c(F)cccc4C3)n1)CC2` [Example 365], the EC50 is less than 400 nM.
To `COc1ccc2c(c1)OCCN(c1cccc(C(=O)N3CCc4cc(C(=O)Nc5c(C)cccc5F)sc4-c4ccccc43)n1)C2` [Example 366] belongs less than 400 nM; to `Cc1cccc(F)c1NC(=O)c1cc2c(s1)-c1ccccc1N(C(=O)c1cccc(N3CCOc4ccc(Br)cc4C3)n1)CC2` [Example 367], less than 400 nM.
For `Cc1cccc(F)c1NC(=O)c1cc2c(s1)-c1ccccc1N(C(=O)c1cccc(N3CCOc4cccc(F)c4C3)n1)CC2` [Example 368], the EC50 was less than 400 nM.
To `Cc1cccc(F)c1NC(=O)c1cc2c(s1)-c1ccccc1N(C(=O)c1cccc(N3CCOc4cccc(Br)c4C3)n1)CC2` [Example 369] belongs 400 to 800 nM; to `Cc1cccc(F)c1NC(=O)c1cc2c(s1)-c1ccccc1N(C(=O)c1cccc(N(C)CCNC(=O)OC(C)(C)C)n1)CC2` [Example 370], 400 to 800 nM; to `Cc1cccc(F)c1NC(=O)c1cc2c(s1)-c1ccccc1N(C(=O)c1cccc(N(C)CCN)n1)CC2` [Example 371], 400 to 800 nM.
`CC(=O)NCCN(C)c1cccc(C(=O)N2CCc3cc(C(=O)Nc4c(C)cccc4F)sc3-c3ccccc32)n1` [Example 372]: the EC50 is 400 to 800 nM.
The same measure for `COC(C)(C)CNc1cccc(C(=O)N2CCc3cc(C(=O)Nc4c(C)cccc4F)sc3-c3ccccc32)n1` [Example 373]: less than 400 nM; for `Cc1cccc(F)c1NC(=O)c1cc2c(s1)-c1ccccc1N(C(=O)c1cccc(N3CCC4C(C3)C4(F)F)n1)CC2` (centres unmarked) [Example 374]: 400 to 800 nM; for `Cc1cccc(F)c1NC(=O)c1cc2c(s1)-c1ccccc1N(C(=O)c1cccc(N3CCCC(C)(C)CC3)n1)CC2` [Example 375]: 400 to 800 nM.
To `Cc1cccc(F)c1NC(=O)c1cc2c(s1)-c1ccccc1N(C(=O)c1cccc(N3C[C@H]4COC[C@H]4C3)n1)CC2` [Example 376] belongs greater than 800 nM; to `Cc1cccc(F)c1NC(=O)c1cc2c(s1)-c1ccccc1N(C(=O)c1cccc(N3CCCN(S(C)(=O)=O)c4ccccc43)n1)CC2` [Example 377], greater than 800 nM.
To `CC(=O)N1CCCN(c2cccc(C(=O)N3CCc4cc(C(=O)Nc5c(C)cccc5F)sc4-c4ccccc43)n2)c2ccccc21` [Example 378] belongs less than 400 nM; to `Cc1cccc(F)c1NC(=O)c1cc2c(s1)-c1ccccc1N(C(=O)c1cccc(N3CCN(S(C)(=O)=O)Cc4ccccc43)n1)CC2` [Example 379], greater than 800 nM.
As to `Cc1cccc(F)c1NC(=O)c1cc2c(s1)-c1ccccc1N(C(=O)c1cccc(N3CCCN(C(=O)OC(C)(C)C)CC3)n1)CC2` [Example 380], the EC50 is less than 400 nM.
To `Cc1cccc(F)c1NC(=O)c1cc2c(s1)-c1ccccc1N(C(=O)c1cccc(N3CCCNCC3)n1)CC2` [Example 381] belongs greater than 800 nM; to `Cc1cccc(F)c1NC(=O)c1cc2c(s1)-c1ccccc1N(C(=O)c1cccc(N3CCCN(S(=O)(=O)C4CC4)CC3)n1)CC2` [Example 382], less than 400 nM; to `Cc1cccc(F)c1NC(=O)c1cc2c(s1)-c1ccccc1N(C(=O)c1cccc(N3CCCN(S(=O)(=O)C4(C)CC4)CC3)n1)CC2` [Example 383], less than 400 nM.
